In assay [1] the test system is PANC-1. Nature of the assay: Preferential cytotoxic activity against human PANC-1 cells in nutrient-deprived medium. The class given is functional.
A short description of assay [2]: Selectivity index, ratio of PC50 for Preferential cytotoxic activity against human PANC-1 cells in Dulbecco's modified Eagle's medium to PC50 for Preferential cytotoxic activity against human PANC-1 cells in nutrient-deprived medium. The class given is functional.
For assay [3], the system named is PANC-1. Nature of the assay: Preferential cytotoxic activity against human PANC-1 cells in Dulbecco's modified Eagle's medium. The class given is functional, cell-based.
The target of assay [4] is T1, Serine/threonine-protein kinase AKT (Homo sapiens) (UniProt P31751+Q9Y243+P31749). Nature of the assay: Inhibition of Akt signaling in human PANC-1 cells assessed as reduction in mTOR […] phosphorylation in NDM medium at 10 uM incubated for 6 hrs by Western blot analysis. It is filed as cell-based. Background: Immunoblotting shows a protein as a band on a membrane.
T1 sequence (P31749 whole entry, looked up): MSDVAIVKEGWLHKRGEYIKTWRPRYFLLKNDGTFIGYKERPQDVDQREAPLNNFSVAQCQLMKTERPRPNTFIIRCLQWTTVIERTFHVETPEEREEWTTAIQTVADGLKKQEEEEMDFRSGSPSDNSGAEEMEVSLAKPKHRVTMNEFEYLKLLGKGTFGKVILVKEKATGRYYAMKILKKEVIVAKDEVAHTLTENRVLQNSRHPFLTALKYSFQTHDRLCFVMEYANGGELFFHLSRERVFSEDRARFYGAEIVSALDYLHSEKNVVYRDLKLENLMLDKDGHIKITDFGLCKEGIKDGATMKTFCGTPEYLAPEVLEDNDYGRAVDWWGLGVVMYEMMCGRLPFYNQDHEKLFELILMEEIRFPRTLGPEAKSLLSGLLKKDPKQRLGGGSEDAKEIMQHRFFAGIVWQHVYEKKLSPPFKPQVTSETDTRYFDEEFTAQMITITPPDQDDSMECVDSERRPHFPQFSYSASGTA
T1 sequence (P31751 whole entry, looked up): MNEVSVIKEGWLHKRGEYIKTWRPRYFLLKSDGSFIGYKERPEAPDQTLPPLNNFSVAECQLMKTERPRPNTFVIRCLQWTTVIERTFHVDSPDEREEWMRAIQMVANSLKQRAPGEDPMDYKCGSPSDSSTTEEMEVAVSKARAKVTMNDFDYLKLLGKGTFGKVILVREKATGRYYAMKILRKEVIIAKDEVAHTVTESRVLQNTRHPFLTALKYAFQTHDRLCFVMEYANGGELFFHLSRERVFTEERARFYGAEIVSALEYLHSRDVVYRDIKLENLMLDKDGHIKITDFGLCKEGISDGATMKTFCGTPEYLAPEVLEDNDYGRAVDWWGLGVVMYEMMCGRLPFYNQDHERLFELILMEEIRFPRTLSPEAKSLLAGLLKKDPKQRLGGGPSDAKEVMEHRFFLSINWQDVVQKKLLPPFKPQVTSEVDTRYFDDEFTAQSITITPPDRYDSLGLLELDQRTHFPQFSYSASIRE
T1 sequence (Q9Y243 whole entry, looked up): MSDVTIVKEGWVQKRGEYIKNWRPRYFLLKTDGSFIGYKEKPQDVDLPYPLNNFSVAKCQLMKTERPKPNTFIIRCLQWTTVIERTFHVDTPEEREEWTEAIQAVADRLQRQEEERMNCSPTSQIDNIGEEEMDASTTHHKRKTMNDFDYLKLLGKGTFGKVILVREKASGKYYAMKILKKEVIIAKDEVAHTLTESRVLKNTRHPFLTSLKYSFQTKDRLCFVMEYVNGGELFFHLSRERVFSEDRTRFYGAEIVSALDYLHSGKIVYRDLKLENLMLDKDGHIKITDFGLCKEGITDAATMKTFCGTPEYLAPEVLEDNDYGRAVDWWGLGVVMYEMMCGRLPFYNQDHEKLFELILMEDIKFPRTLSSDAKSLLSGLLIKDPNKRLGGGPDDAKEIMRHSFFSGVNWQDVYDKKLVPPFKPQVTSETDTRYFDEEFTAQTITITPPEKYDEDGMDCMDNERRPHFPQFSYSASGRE

Assay [5] has as its system PANC-1. As to the kind of experiment: Inhibition of colony formation in human PANC-1 cells in DMEM medium at 3 uM incubated for 10 days relative to control. It is filed as functional. As to conditions: PANC-1, 240 h, time 10 day.
The subject of assay [6] is PANC-1. As to the kind of experiment: Inhibition of colony formation in human PANC-1 cells in DMEM medium at 5 uM incubated for 10 days relative to control. Conditions: PANC-1, 240 h, time 10 day. The class given is functional.
Assay [7] has as its system PANC-1. Nature of the assay: Induction of morphological changes in human PANC-1 cells in nutrient-deprived medium assessed as induction of cell rounding and shrinkage at 10 uM within 24 hrs by Cyto-smart Lux2 live cell imaging based method. The class given is functional.
For assay [8], the system named is PANC-1. As to the kind of experiment: Effect on Akt protein expression in human PANC-1 cells in DMEM medium at 1 to 10 uM incubated for 6 hrs by Western blot analysis. The class given is functional, cell-based. As to conditions: dose 1-10 µM.
Assay [9] relates to PANC-1. As to the kind of experiment: Inhibition of cell migration in human PANC-1 cells in DMEM medium assessed as wound area level at 3 uM after 48 hrs by wound-healing assay relative to initial area (reference value: 23%). Further details: scale not given: the % may be the effect or the level left. It is filed as functional.
The test system of assay [10] is PANC-1. Nature of the assay: Inhibition of colony formation in human PANC-1 cells in DMEM medium at 1 uM incubated for 10 days relative to control. As to conditions: PANC-1, 240 h, time 10 day. The class given is functional.
In assay [11] the test system is PANC-1. As to the kind of experiment: Effect on mTOR protein expression in human PANC-1 cells in DMEM medium at 1 to 10 uM incubated for 6 hrs by Western blot analysis. It is filed as functional, cell-based. As to conditions: dose 1-10 µM.
The subject of assay [12] is PANC-1. Nature of the assay: Effect on mTOR protein expression in human PANC-1 cells in NDM medium at 1 to 10 uM incubated for 6 hrs by Western blot analysis. Conditions: dose 1-10 µM. It is filed as functional, cell-based.
Assay [13] concerns PANC-1. Nature of the assay: Induction of cell death in human PANC-1 cells in nutrient-deprived medium at 10 uM after 24 hrs by ethidium bromide-acridine orange double-staining assay. It is filed as functional, cell-based.
For assay [14], the system named is PANC-1. Nature of the assay: Induction of morphological changes in human PANC-1 cells in nutrient-deprived medium assessed as induction of leakage of intracellular components into the media at 10 uM within 24 hrs by Cyto-smart Lux2 live cell imaging based method. The class given is functional.
The target in assay [15] is T1, Serine/threonine-protein kinase AKT (Homo sapiens). Nature of the assay: Inhibition of Akt S473 phosphorylation in human PANC-1 cells in NDM medium at 2.5 to 10 uM incubated for 6 hrs by Western blot analysis. It is filed as cell-based. As to conditions: dose 2.5-10 µM.
Assay [16] relates to PANC-1. As to the kind of experiment: Inhibition of cell migration in human PANC-1 cells in DMEM medium assessed as wound area level at 3 uM after 24 hrs by wound-healing assay relative to initial area (reference value: 55%). It is filed as functional. Further details: scale not given: the % may be the effect or the level left.
The subject of assay [17] is PANC-1. As to the kind of experiment: Inhibition of cell migration in human PANC-1 cells in DMEM medium assessed as wound area level at 5 uM after 48 hrs by wound-healing assay relative to initial area (reference value: 23%). It is filed as functional. More on the design: scale not given: the % may be the effect or the level left.
Assay [18] has as its target T1, Serine/threonine-protein kinase AKT (Homo sapiens). As to the kind of experiment: Inhibition of Akt S473 phosphorylation in human PANC-1 cells in DMEM medium at 10 uM incubated for 6 hrs by Western blot analysis. It is filed as cell-based.
Assay [19] concerns PANC-1. Nature of the assay: Effect on […] protein expression in human PANC-1 cells in NDM medium at 1 to 10 uM incubated for 6 hrs by Western blot analysis. It is filed as functional, cell-based. As to conditions: dose 1-10 µM.
For assay [20], the system named is PANC-1. Nature of the assay: Inhibition of cell migration in human PANC-1 cells in DMEM medium assessed as wound area level at 5 uM after 24 hrs by wound-healing assay relative to initial area (reference value: 55%). The class given is functional. Further details: scale not given: the % may be the effect or the level left.

Activity calls are given as the source filed them. The calls are words filed in the database; no cut-off is given here. A value given as a limit tells only on which side of the number the result lay.

On to `C[C@]12CCC(=O)C=C1CC[C@@H]1[C@@H]2CC[C@]2(C)C(=C(F)F)[C@H](O)C[C@@H]12`, for which the PC50 in assay [1] is 18 µM. Besides, the “Selectivity Index” value in assay [2] is reported as 2.8. The compound also returned an IC50 in [3] of 51 µM.
Regarding `C/C=C1/C(=O)C[C@H]2[C@@H]3CCC4=CC(=O)CC[C@]4(C)[C@H]3CC[C@]12C`, the PC50 result in [1] is “Active”.
Compound `C[C@]12CCC(=O)C=C1CC[C@@H]1[C@@H]2CC[C@]2(C)C(=C(F)F)CC[C@@H]12` gave a PC50 in assay [1] of 5.2 µM. The “Selectivity Index” value in [2] is 18. For the same compound, the 50% inhibitory concentration (IC50) in [3] worked out at 91 µM.
With `C[C@]12CC[C@H]3[C@@H](CCC4=CC(=O)CC[C@@]43C)[C@@H]1CC(=O)[C@@H]2CSCCO`, in assay [1], the PC50 was determined as 53 µM. In assay [3], this compound showed an IC50 of 100 µM.
For the compound `CC(=O)O[C@H]1CCCC2=CC(=O)CC[C@@]21C`, in [1], the PC50 was above 100 µM. Moreover, in assay [3], the half-inhibitory concentration (IC50) is above 100 µM.
Consider `C/C=C1/CC[C@H]2[C@@H]3CCC4=CC(=O)CC[C@]4(C)[C@H]3CC[C@]12C`, for which, in assay [1], the PC50 turned out to be 3.2 µM. Moreover, the “Selectivity Index” value in assay [2] was above 31. The half-maximal inhibitory concentration (IC50) in [3] is above 100 µM.
`CCO[C@H]1CCCC2=CC(=O)CC[C@@]21C` displayed a PC50 in assay [1] above 100 µM. Also, the concentration for half-maximal inhibition (IC50) in assay [3] was above 100 µM.
Compound `C=C1CC[C@H]2[C@@H]3CCC4=CC(=O)CC[C@]4(C)[C@H]3CC[C@]12C` had a PC50 in assay [1] of 3.5 µM. In addition, the “Selectivity Index” value in assay [2] is 14. Besides, in assay [3], the half-maximal inhibitory concentration (IC50) is 50 µM.
For the compound `C=C1[C@H](O)C[C@H]2[C@@H]3CCC4=CC(=O)CC[C@]4(C)[C@H]3CC[C@]12C`, in [1], the PC50 stood at 57 µM. The same compound registered an IC50 in assay [3] above 100 µM.
`C=C1C(=O)C[C@H]2[C@@H]3CC[C@H]4CCCC[C@]4(C)[C@H]3CC[C@]12C` registered a PC50 in [1] of 0.8 µM. For the same compound, in assay [2], the “Selectivity Index” value was 3.8. This compound also yielded an IC50 in assay [3] of 3 µM.
Regarding `C=C1C(F)(F)C[C@H]2[C@@H]3CCC4=CC(=O)CC[C@]4(C)[C@H]3CC[C@]12C`, the PC50 in assay [1] came to 14 µM. Also, in assay [2], the “Selectivity Index” value is given as above 7.1. The compound further displayed an IC50 in assay [3] above 100 µM.
As to `C=C1C(=O)C[C@H]2[C@@H]3CC[C@H]4CC(=O)CC[C@]4(C)[C@H]3CC[C@]12C`, the inhibition result in assay [4], in [15] and in assay [18] was “Active” in each case. Besides, in assay [5], the inhibition at 3 µM came to 97.7%. The compound further gave an inhibition at 5 µM in assay [6] of 100%. The result in assay [7], in assay [13] and in assay [14] was Active. Moreover, the Activity result in [8] is “Non-Toxic”; in assay [9] it was 45%; in [11] it was “Non-Toxic”; in assay [12], “Non-Toxic”; in assay [16], 70%; in [17] it was 70%. In addition, the results for the Activity entry in [19] and in [20] were “Non-Toxic” and 85%, respectively. This compound came in with a PC50 in [1] of 0.72 µM. The same compound came in with an inhibition at 1 µM in assay [10] above 50.9%. Moreover, in assay [2], the “Selectivity Index” value was 4.9. This compound came in with an IC50 in assay [3] of 3.5 µM.
The compound `C=C1[C@H](OCOC)C[C@H]2[C@@H]3CCC4=CC(=O)CC[C@]4(C)[C@H]3CC[C@]12C` had a PC50 in assay [1] of 31 µM. In [2], the “Selectivity Index” value turned out to be 3.2. This compound also came in with a half-maximal inhibitory concentration (IC50) in [3] of 100 µM.
For `COCO[C@@H]1C[C@H]2[C@@H]3CCC4=CC(=O)CC[C@]4(C)[C@H]3CC[C@]2(C)C1=C(F)F` the same measures were 9.2 µM, 3.2 and 29 µM.
For `C=C1C(=O)C[C@H]2[C@@H]3CCC4=CC(=O)CC[C@]4(C)[C@H]3CC[C@]12C`, the PC50 in [1] came to 1.6 µM. Further, the “Selectivity Index” value in [2] is 6.9.

Usually IC50 stands for the concentration that gives 50% inhibition. Usually inhibition stands for the relative decrease from the control value, in per cent.

For the origin of these results see ChEMBL document CHEMBL5143553, “Structure-activity relationship and mechanistic study on guggulsterone derivatives; Discovery of new anti-pancreatic cancer candidate” (Bioorg Med Chem, 2022).
